Results reported in patent US20240108745A1, “BIOACTIVE SUBSTANCE CONJUGATE, PREPARATION METHOD THEREFOR AND USE THEREOF” (MEDILINK THERAPEUTICS (SUZHOU) CO., LTD., priority 2021, published 2024).

Key:
NCl-H358 cells = assay: Assay I of bioactive molecules on cell viability in vitro (CCK8); format: cell-based; details: Homo sapiens, read-out: EC50(nM), killing of NCl-H358 cells
Experimental: (§1) Tumor cells were first cultured; the bioactive molecules of the present disclosure were co-cultured with tumor cells, and then CCK8 reagent (Dojindo Laboratories (Shanghai), Cat: CK04, Lot: JJ744) was added, and the activity of dehydrogenase in mitochondria was detected by reading (detection wavelength 450 nm) on a microplate reader (manufacturer: Molecular Devices, model: SpectraMax M2), to evaluate the inhibitory effect of bioactive molecules on cell proliferation.
(§2) In vitro cell viability assay method: bioactive molecules (12 concentration gradients) were diluted with corresponding assay medium (containing 2% FBS). The tumor cells were digested by conventional methods using trypsin, and cells in tube were collected and counted, then resuspended in the corresponding assay media (containing 2% FBS). The diluted bioactive molecules were added to a 96-well plate, followed by the cells. Then, 20 μL of CCK8 reagent was added to each well, and the reaction was carried out for 4 h, then the plate was read on a microplate reader (detection wavelength was 450 nm). The experimental results are shown in Tables 6.1, 6.2, 6.3, 6.4, and 6.5.

HT29 cells = assay: as above; format: cell-based; details: Homo sapiens, HT-29, CCK8; read-out: EC50(nM), killing of HT29 cells
Experimental: as §1, §2

Compound | EC50 (NCl-H358 cells) | EC50 (HT29 cells)
CC[C@@]1(O)C(=O)OCc2c1cc1n(c2=O)Cc2c-1nc1cc3c(cc1c2CCNC(C)C)OCO3 [Example A1.8D, (S) 7-ethyl-7-hydroxy-14-(2-(isopropylamine)ethyl)-10,13-dihydro-11H-[1,3]dioxolo[4,5-g]pyrano[3′,4′:6,7]indolizino[1,2-b]quinolin-8,11(7H)-dione] | 7.92 nM | –
CC[C@@]1(O)C(=O)OCc2c1cc1n(c2=O)Cc2c-1nc1cc(F)c(C)cc1c2/C=C/CO [Example A1.14, (S,E)-4-ethyl-8-fluoro-4-hydroxy-11-(3-hydroxy-1-propylen-1-yl)-9-methyl-1,12-dihydro-14H-pyrano[3′,4′:6,7]indolizino[1,2-b]quinolin--3,14(4H)-dione] | 123 nM | 156 nM
CC[C@@]1(O)C(=O)OCc2c1cc1n(c2=O)Cc2c-1nc1cc(F)c(C)cc1c2CCCN [Example A1.11, (S)-4-ethyl-8-fluoro-4-hydroxy-11-(3-aminopropyl)-9-methyl-1,12-dihydro-14H-pyrano[3′,4′:6,7]indolizino[1,2-b]quinolin-3,14(4H)-dione] | 203 nM | 284 nM
CC[C@@]1(O)C(=O)OCc2c1cc1n(c2=O)Cc2c-1nc1cc3c(cc1c2-c1ccc(N)cc1)OCO3 [Example A1.4, (S)-14-(4-aminophenyl)-7-ethyl-7-hydroxy-10,13-dihydro-11H-[1,3]dioxolo[4,5-g]pyrano[3′,4′:6,7]indolizino[1,2-b]quinolin-8,11(7H)-dione] | 29.9 nM | 29.4 nM
CC[C@@]1(O)C(=O)OCc2c1cc1n(c2=O)Cc2c-1nc1cc(F)c(C)cc1c2CCCO [Example A1.10, (S)-4-ethyl-8-fluoro-4-hydroxy-11-(3-hydroxypropyl)-9-methyl-1,12-dihydro-14H-pyrano[3′,4′:6,7]indolizino[1,2-b]quinolin-3,14(4H)-dione] | 8.11 nM | 5.96 nM
CC[C@@]1(O)C(=O)OCc2c1cc1n(c2=O)Cc2c-1nc1cc3c(cc1c2/C=C/CO)OCO3 [Example A1.13, (S,E)-14-(3-hydroxy-1-propylen-1-yl)-7-ethyl-7-hydroxy-10,13-dihydro-11H-[1,3]dioxolo[4,5-g]pyrano[3′,4′:6,7]indolizino[1,2-b]quinolin-8,11(7H)-dione] | 49.2 nM | 96.8 nM
CC[C@@]1(O)C(=O)OCc2c1cc1n(c2=O)Cc2c-1nc1cc3c(cc1c2/C=C/CN)OCO3 [Example A1.12, (S,E)-14-(3-amino-1-propylen-1-yl)-7-ethyl-7-hydroxy-10,13-dihydro-11H-[1,3]dioxolo[4,5-g]pyrano[3′,4′:6,7]indolizino[1,2-b]quinolin-8,11(7H)-dione] | 167 nM | 212 nM
CC[C@@]1(O)C(=O)OCc2c1cc1n(c2=O)Cc2c-1nc1cc3c(cc1c2CCN(C(=O)CO)C(C)C)OCO3 [Example A1.8, (S)—N-(2-(7-ethyl-7-hydroxy-8,11-dioxo-7,8,11,13-tetrahydro-10H-[1,3]dioxolo[4,5-g]pyrano[3′,4′:6,7]indolizino[1,2-b]quinolin-14-yl)ethyl)-2-hydroxy-N-isopropylacetamide] | 296 nM | 367 nM
